Reference: PMC3584441 (The Journal of membrane biology, 2013)
Where no end group is shown, it is not given here.

system: sheep erythrocytes; test: Hemolysis assay: decrease in absorbance; assay type: cell-based; details: grouped as hemolytic (yes) or non-hemolytic (no)

Compound | Hemolytic
CC[C@H](C)[C@H](NC(=O)[C@H](Cc1c[nH]c2ccccc12)NC(=O)[C@H](CCCCN)NC(=O)[C@@H](NC(=O)[C@H](CC(C)C)NC(=O)[C@H](CCCCN)NC(=O)CNC(=O)[C@@H](NC(=O)[C@@H](NC(=O)[C@H](CO)NC(=O)[C@@H](NC(=O)[C@@H](NC(=O)[C@H](CCCCN)NC(=O)[C@H](CCC(N)=O)NC(=O)[C@H](C)NC(=O)[C@H](CCSC)NC=O)[C@@H](C)CC)[C@@H](C)CC)[C@@H](C)O)[C@@H](C)CC)C(C)C)C(=O)N[C@H](C(=O)N[C@@H](CCCCN)C(=O)N[C@H](C(=O)N[C@H](C(=O)N[C@@H](CC(N)=O)C(=O)N[C@@H](CCCCN)C(=O)N[C@@H](Cc1ccccc1)C(=O)N[C@H](C(=O)N[C@@H](CCCCN)C(=O)N[C@@H](CCCCN)C(=O)O)[C@@H](C)O)C(C)C)[C@@H](C)O)[C@@H](C)CC (racemic) [DL-1] | yes
CC(C)C[C@H](NC=O)C(=O)N[C@@H](C)C(=O)N[C@@H](C)C(=O)N[C@@H](CC(=O)O)C(=O)N[C@@H](CC(C)C)C(=O)N[C@@H](CC(C)C)C(=O)N[C@@H](C)C(=O)N[C@@H](C)C(=O)N[C@@H](CC(C)C)C(=O)NCC(=O)N[C@@H](CC(=O)O)C(=O)N[C@@H](CC(C)C)C(=O)N[C@@H](C)C(=O)N[C@@H](CCCCN)C(=O)N[C@@H](Cc1c[nH]c2ccccc12)C(=O)N[C@@H](CC(C)C)C(=O)N[C@@H](CC(C)C)C(=O)N[C@@H](CC(=O)O)C(=O)N[C@@H](C)C(=O)N[C@@H](CC(C)C)C(=O)N[C@@H](C)C(=O)N[C@@H](CCCCN)C(=O)N[C@@H](C)C(=O)N[C@@H](C)C(=O)N[C@@H](CCCCN)C(=O)N[C@@H](CCCCN)C(=O)O (racemic) [DL-2a] | yes
AGWLLGDINLKALAALAKKIL-NH2 [TPW-3] | yes
KWKLLKKLEKAGAALKEGLLKAGPALALLGAAAALAK-NH2 [CE-2] | yes
GLGKLLHAAKKLGKAWLGELLAA [MG-2] | yes
GILKFLESAKKWLEAFLAEIMNS [MG-1] | yes
AGWLLGKLALKALAALAKKLL-NH2 [TPW-2] | yes
AGWLLGDINLDALAALAKKIL-NH2 [TPW-1] | yes
CC[C@H](C)[C@H](NC(=O)[C@H](Cc1c[nH]c2ccccc12)NC(=O)[C@H](CCCCN)NC(=O)[C@@H](NC(=O)[C@H](CC(C)C)NC(=O)[C@H](CC(=O)O)NC(=O)CNC(=O)[C@@H](NC(=O)[C@@H](NC(=O)[C@H](CO)NC(=O)[C@@H](NC(=O)[C@@H](NC(=O)[C@H](CC(=O)O)NC(=O)[C@H](CCC(N)=O)NC(=O)[C@H](C)NC(=O)[C@H](CCSC)NC=O)[C@@H](C)CC)[C@@H](C)CC)[C@@H](C)O)[C@@H](C)CC)C(C)C)C(=O)N[C@H](C(=O)N[C@@H](CC(=O)O)C(=O)N[C@H](C(=O)N[C@H](C(=O)N[C@@H](CC(N)=O)C(=O)N[C@@H](CCCCN)C(=O)N[C@@H](Cc1ccccc1)C(=O)N[C@H](C(=O)N[C@@H](CCCCN)C(=O)N[C@@H](CCCCN)C(=O)O)[C@@H](C)O)C(C)C)[C@@H](C)O)[C@@H](C)CC [δ-Lysin, reference compound] | yes
CC[C@H](C)[C@H](NC(=O)[C@H](CCCCN)NC(=O)[C@H](CCCCN)NC(=O)[C@H](C)NC(=O)[C@H](CC(C)C)NC(=O)[C@H](C)NC(=O)[C@H](C)NC(=O)[C@H](CC(C)C)NC(=O)[C@H](C)NC(=O)[C@H](CCCCN)NC(=O)[C@H](CC(C)C)NC(=O)[C@H](CC(N)=O)NC(=O)[C@@H](NC(=O)[C@H](CCCCN)NC(=O)CNC(=O)[C@H](CC(C)C)NC(=O)[C@H](CC(C)C)NC(=O)[C@H](Cc1c[nH]c2ccccc12)NC(=O)CNC(=O)[C@H](C)N)[C@@H](C)CC)C(=O)N[C@@H](CC(C)C)C(N)=O [TP10W] | yes
